According to ChEMBL document CHEMBL1146279 (Bioorg Med Chem Lett, 2007):

Target: T1, Tyrosine-protein kinase JAK3 (Homo sapiens, UniProt P52333)
T1 sequence (P52333 whole entry): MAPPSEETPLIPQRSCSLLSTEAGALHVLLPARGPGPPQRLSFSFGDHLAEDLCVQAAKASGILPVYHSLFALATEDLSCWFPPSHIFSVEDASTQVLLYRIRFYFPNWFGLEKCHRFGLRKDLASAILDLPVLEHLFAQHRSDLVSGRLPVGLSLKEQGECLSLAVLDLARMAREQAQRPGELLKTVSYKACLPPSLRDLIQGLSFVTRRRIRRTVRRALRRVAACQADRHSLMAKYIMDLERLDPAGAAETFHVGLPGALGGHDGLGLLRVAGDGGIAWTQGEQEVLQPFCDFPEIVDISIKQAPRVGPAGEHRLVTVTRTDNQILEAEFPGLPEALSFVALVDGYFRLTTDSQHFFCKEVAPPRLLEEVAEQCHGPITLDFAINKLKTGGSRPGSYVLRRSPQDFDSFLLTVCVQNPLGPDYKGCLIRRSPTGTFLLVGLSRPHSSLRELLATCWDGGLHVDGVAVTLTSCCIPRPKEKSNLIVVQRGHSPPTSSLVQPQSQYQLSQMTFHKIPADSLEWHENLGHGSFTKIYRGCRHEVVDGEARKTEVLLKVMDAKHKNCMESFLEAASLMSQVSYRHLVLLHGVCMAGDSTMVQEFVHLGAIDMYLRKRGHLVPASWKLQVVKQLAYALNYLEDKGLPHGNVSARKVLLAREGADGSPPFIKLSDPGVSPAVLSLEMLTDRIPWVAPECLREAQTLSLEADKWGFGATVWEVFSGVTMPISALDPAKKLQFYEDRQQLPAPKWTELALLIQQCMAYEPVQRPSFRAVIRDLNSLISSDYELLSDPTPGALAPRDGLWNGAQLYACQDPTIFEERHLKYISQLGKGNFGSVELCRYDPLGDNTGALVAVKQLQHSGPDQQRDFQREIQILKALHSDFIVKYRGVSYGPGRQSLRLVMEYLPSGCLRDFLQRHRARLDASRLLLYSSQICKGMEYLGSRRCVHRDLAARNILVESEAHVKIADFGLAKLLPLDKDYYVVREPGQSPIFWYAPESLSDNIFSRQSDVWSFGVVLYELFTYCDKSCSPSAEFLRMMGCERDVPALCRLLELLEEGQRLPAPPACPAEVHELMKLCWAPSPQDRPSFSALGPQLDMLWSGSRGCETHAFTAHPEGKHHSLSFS
Assay: Inhibition of JAK3 expressed in Sf21 cells

Compound	IC50
CN(C)CCCNC(=O)/C=C/c1ccc2c(c1)c1c3c(c4c5ccccc5n5c4c1n2CC(CO)C5)CNC3=O (stereo not given)	237 nM
O=C1NCc2c1c1c3ccccc3n3c1c1c2c2ccccc2n1CC(O)C3 (stereo not given)	142 nM
O=C1NCc2c1c1c3ccccc3n3c1c1c2c2ccccc2n1CC(CO)(CO)C3	13.5 nM
O=C1NCc2c1c1c3ccccc3n3c1c1c2c2ccccc2n1CC(=C(CO)CO)C3	36 nM
O=C1NCc2c1c1c3ccccc3n3c1c1c2c2ccccc2n1CC(O)(CO)C3 (stereo not given)	27 nM
O=C1NCc2c1c1c3cc(/C=C/c4ccccn4)ccc3n3c1c1c2c2ccccc2n1CC(CO)C3 (stereo not given)	354 nM
O=C1NCc2c1c1c3cc(/C=C/Cn4ccnc4)ccc3n3c1c1c2c2ccccc2n1CC(CO)C3 (stereo not given)	11 nM
O=C1NCc2c1c1c3cc(/C=C/n4ccnc4)ccc3n3c1c1c2c2ccccc2n1CC(CO)C3 (stereo not given)	109 nM

Results, then the molecule that gave them:

IC50	Compound
15 nM	O=Cc1ccc2c(c1)c1c3c(c4c5cc(Br)ccc5n5c4c1n2CC(CO)C5)C(=O)NC3 (stereo not given)
14 nM	O=C1NCc2c1c1c3cc(CO)ccc3n3c1c1c2c2cc(CO)ccc2n1CC(CO)C3 (stereo not given)
250 nM	CN(C)Cc1ccc2c(c1)c1c3c(c4c5ccccc5n5c4c1n2CC(CO)C5)C(=O)NC3 (stereo not given)
> 5000 nM	O=C1NCc2c1c1c3cc(CN4CCOCC4)ccc3n3c1c1c2c2cc(CN4CCOCC4)ccc2n1CC(CO)C3 (stereo not given)
17.5 nM	O=C1NCc2c1c1c3ccccc3n3c1c1c2c2ccccc2n1CC(CO)C3 (stereo not given)
80 nM	CC(C)OCc1ccc2c(c1)c1c3c(c4c5ccccc5n5c4c1n2CC(CO)C5)C(=O)NC3 (stereo not given)
23.5 nM	O=C1NCc2c1c1c3cc(Br)ccc3n3c1c1c2c2ccccc2n1CC(CO)C3 (stereo not given)
